{"source": "patent US6174855A", "about": "“Pharmaceutical compositions comprising thrombin inhibitors and their use in the control of wound healing processes” (AstraZeneca AB, priority 1996, dated 2001)", "key": {"[1]": {"test": "Bleeding observations during inogatran minipump infusion", "assay_type": "in vivo, rat", "settings": "day 7", "source_text": "(§1) The serosal surfaces of the stomachs of adult, anaesthetised rats were exposed in an area 7 mm diameter to 80% acetic acid over 60 seconds and then rinsed with buffered saline."}, "[2]": {"test": "Plasma concentration of inogatran during intraperitoneal minipump infusion", "assay_type": "in vivo, rat", "source_text": "as §1"}, "[3]": {"test": "Plasma concentration of inogatran during intraperitoneal minipump infusion", "assay_type": "in vivo, rat", "settings": "for Mean Plasma Conc.: two rats"}, "[4]": {"system": "fibrin-related adhesions between the stomach and the liver, the intestines and the omentum", "test": "Acetic acid injury to the serosal surface of the rat stomach: formation of adhesions", "assay_type": "in vivo", "settings": "for Adherences score: day 7", "protocol": "The serosal surface of the stomach of an adult anaesthetised rat was exposed in an area of 7 mm diameter to 80% acetic acid over 60 seconds. After rinsing with buffered saline solution, an osmotic minipump (Alza 2001, volume about 220 μL; pumping rate about 1 μL/h; Alza Corp.; Palo Alto, Calif., USA; prefilled with a solution of the thrombin inhibitor melagatran, 2-100 μg/mL) was implanted into the peritoneal cavity, with the outlet of the pump kept open, and delivered its content into the abdominal cavity. The wounded area was covered by a chitosan membrane or, in an alternative experiment, a gel, having a diameter several millimeters larger than that of the injured area.\nThe serosal surface of the stomach of an adult, anaesthetised rat was exposed in an area of 7 mm diameter to 80% acetic acid over 60 seconds. After rinsing with buffered saline, the wounded area was covered by a chitosan membrane or, in an alternative experiment, a gel, having a diameter several millimeters larger than the injured area. An osmotic minipump (Alza 2001, volume about 220 μL; pumping rate about 1 μL/h; Alza Corp.; Palo Alto, Calif., USA; prefilled with a solution of the thrombin inhibitor melagatran, 2-100 μg/mL) was implanted subcutaneously, with the outlet of the pump kept open, delivering its content into the adjacent tissue. […]"}, "[5]": {"system": "adhesions between injured area and adjacent muscles, muscle fascia, vessels, nerves and skin", "test": "Surgical removal of thigh muscle fascia in rat: adhesions inspected after 10 days", "assay_type": "in vivo", "settings": "subcutaneous minipump 0.2×100μg/mL, versus untreated animals", "source_text": "An incision was made in the thigh through the skin into the muscle tissue in an anaesthetised adult rat, and the muscle fascia was surgically removed in a defined area (about 10×15 mm). The wound was sutured, and eventually opened for inspection after 10 days. Numerous adhesions were recognized, and the presence of granulation tissue were noticed to connect and lock the injured area to adjacent muscles, muscle fascia, vessels and nerves as well as to the skin.\nAn incision was made in the thigh through the skin into the muscle tissue in an anaesthetised adult rat and the muscle fascia was surgically removed in a defined area (about 10×15 mm). The muscle fascia was covered by a chitosan membrane or, in an alternative experiment, a gel, to which was connected a tube from an osmotic minipump, which had been implanted subcutaneously (Alza 2001, total volume about 220 μL; pumping rate about 1 μL/h; Alza Corp.; Palo Alto, Calif., USA; prefilled with a solution of the thrombin inhibitor melagatran, 0.2×100μg/mL). The wound was then sutured, and eventually opened and inspected after 10 days."}, "[6]": {"settings": "infusion rate 1*10 μL/h, 658 μg/h"}, "[7]": {"settings": "infusion rate 2*10 μL/h, 1317 μg/h"}}, "note": "“And” between values parts separate entries of the source, which are not always exact repeats. Equal entries are not always repeated."}
{"molecule": "N=C(N)NCCCNC(=O)[C@@H]1CCCCN1C(=O)[C@@H](CC1CCCCC1)NCC(=O)O", "note": "[inogatran, HOOC--CH2 --(R)Cha-Pic-Nag-H]", "values": [{"measurement": "bleeding observation", "setting": "[1]; [6]", "result": "Minor Tendency to Bleed"}, {"measurement": "bleeding observation", "setting": "[1]; [7]", "result": "Diffuse Bleeding"}, {"measurement": "Plasma Conc.", "setting": "[2]; infusion rate 1*1 μL/h, 66 μg/h (124 and 142 μg/kg/h), day 1", "result": "580 nM and 610 nM"}, {"measurement": "Plasma Conc.", "setting": "[2]; infusion rate 1*1 μL/h, 66 μg/h (124 and 142 μg/kg/h), day 7", "result": "170 nM and 190 nM"}, {"measurement": "Plasma Conc.", "setting": "[2]; infusion rate 1*10 μL/h, 658 μg/h (1327 and 1351 μg/kg/h), day 7", "result": "1880 nM and 1790 nM"}, {"measurement": "Plasma Conc.", "setting": "[2]; infusion rate 2*1 μL/h, 132 μg/h (269 and 248 μg/kg/h), day 1", "result": "470 nM and 460 nM"}, {"measurement": "Plasma Conc.", "setting": "[2]; infusion rate 4*1 μL/h, 264 μg/h (588 and 558 μg/kg/h), day 1", "result": "1270 nM and 810 nM"}, {"measurement": "Plasma Conc.", "setting": "[2]; infusion rate 4*1 μL/h, 264 μg/h (588 and 558 μg/kg/h), day 2", "result": "470 nM and 890 nM"}, {"measurement": "Plasma Conc.", "setting": "[2]; infusion rate 4*1 μL/h, 264 μg/h (588 and 558 μg/kg/h), day 7", "result": "570 nM and 870 nM"}, {"measurement": "Mean Plasma Conc.", "setting": "[2]; infusion rate 4*1 μL/h, 264 μg/h, two rats, day 7", "result": 720, "unit": "nM"}, {"measurement": "Mean Plasma Conc.", "setting": "[3]; infusion rate 1*1 μL/h, 66 μg/h, day 7", "result": 180, "unit": "nM"}, {"measurement": "Mean Plasma Conc.", "setting": "[3]; infusion rate 1*10 μL/h, 658 μg/h, day 7", "result": 1840, "unit": "nM"}, {"measurement": "Plasma Conc.", "setting": "[3]; infusion rate 2*1 μL/h, 132 μg/h (269 and 248 μg/kg/h), day 7", "result": "240 nM and 370 nM"}, {"measurement": "Mean Plasma Conc.", "setting": "[3]; infusion rate 2*1 μL/h, 132 μg/h, day 7", "result": 310, "unit": "nM"}, {"measurement": "Plasma Conc.", "setting": "[3]; infusion rate 2*10 μL/h, 1317 μg/h (2761 μg/kg/h), day 1", "result": 4440, "unit": "nM"}, {"measurement": "Plasma Conc.", "setting": "[3]; infusion rate 2*10 μL/h, 1317 μg/h (2761 μg/kg/h), day 2", "result": 2820, "unit": "nM"}, {"measurement": "Plasma Conc.", "setting": "[3]; infusion rate 2*10 μL/h, 1317 μg/h (2761 μg/kg/h), day 7", "result": 5560, "unit": "nM"}, {"measurement": "Adherences score", "setting": "[4]; infusion rate 1*1 μL/h, 66 μg/h", "result": "3 and 4"}, {"measurement": "Adherences score", "setting": "[4]; [6]", "result": 0}, {"measurement": "Adherences score", "setting": "[4]; infusion rate 2*1 μL/h, 132 μg/h", "result": 2}, {"measurement": "Adherences score", "setting": "[4]; [7]", "result": 0}, {"measurement": "formation of adhesions, dose dependence", "setting": "[4]; intraperitoneal minipump(s) 65.86 μg/μL, 1 to 20 μL/h, for a week", "result": "prevented in a dose-response related manner"}]}
{"molecule": "hirudin", "values": [{"measurement": "fibrin network or strands of granulation tissue between the stomach and the liver, the intestines and the omentum", "setting": "[4]; intraperitoneal minipump for a week, wound covered by hyaluronan or chitosan membrane, up to 10 days", "result": "No fibrin network or strands of granulation tissue could be detected"}]}
{"molecule": "streptokinase: fibrinolytic agent, purchased from Sigma Chemical Co", "values": [{"measurement": "fibrin-platelet network or strands of granulation tissue between the stomach and the liver, the intestines and the omentum", "setting": "[4]; intraperitoneal minipump, outlet connected to surface of chitosan membrane (or gel), up to 10 days", "result": "No fibrin-platelet network nor any strands of granulation tissue could be detected"}, {"measurement": "fibrin network or strands of newly formed granulation tissue connecting the stomach with the liver, the intestines and the omentum", "setting": "[4]; minipump in abdominal cavity, outlet free and open, wound covered by chitosan membrane or gel, up to 10 days", "result": "No fibrin network, nor any strands of newly formed granulation tissue, could be detected"}]}
{"molecule": "N=C(N)c1ccc(CNC(=O)[C@@H]2CCN2C(=O)[C@H](NCC(=O)O)C2CCCCC2)cc1", "note": "[melagatran, HOOC--CH2 --(R)Cgl-Aze-Pab-H]", "values": [{"measurement": "severity and dimensions of the adhesions formed between adjacent structures", "setting": "[5]; tube connected to chitosan membrane or gel over the muscle fascia", "result": "strikingly reduced"}, {"measurement": "granulation tissue connecting and locking the injured area to adjacent structures", "setting": "[5]; tube connected to chitosan membrane or gel", "result": "largely not connecting"}, {"measurement": "bridging tissue (adhesions) between the stomach and the liver, the intestines and the omentum", "setting": "[4]; 100 μL of 100-500 μg/mL solution dripped daily onto chitosan membrane or gel, after 2 to 5 days", "result": "absolutely no bridging tissue"}, {"measurement": "fibrin network or strands of granulation tissue between the stomach and the liver, the intestines and the omentum", "setting": "[4]; intraperitoneal minipump 2-100 μg/mL, outlet connected to chitosan membrane or gel, up to 10 days", "result": "No fibrin network or strands of granulation tissue could be detected"}, {"measurement": "fibrin network or strands of granulation tissue between the stomach and the liver, the intestines and the omentum", "setting": "[4]; intraperitoneal minipump 2-100 μg/mL, outlet open into abdominal cavity, wound covered by chitosan membrane or gel, up to 10 days", "result": "No fibrin network, nor any strands of granulation tissue, could be detected"}, {"measurement": "adhesions between the stomach and the liver, the intestines and the omentum", "setting": "[4]; minipump in peritoneal cavity, 2-100 μg/mL, about 1 μL/h, no polysaccharide, up to 10 days", "result": "only scattered, delicate adhesions"}, {"measurement": "fibrin network or strands of granulation tissue between the stomach and the liver, the intestines and the omentum", "setting": "[4]; subcutaneous minipump 2-100 μg/mL, outlet open, wound covered by chitosan membrane or gel, up to 14 days", "result": "No fibrin network, nor any strands of granulation tissue, could be detected"}]}
